Patent publication US7790738B2, “Methods of treating and preventing AIDS using of COX-2 inhibitors” (Lauras AS, priority 2000, dated 2010)
Where “and” joins values, the source holds several entries; their conditions need not be identical. Identical values can stand only once. Like-named read-outs stand apart in the source and are kept apart here.

Tests used:
[1] = molecular target: T1, COX-2 (Homo sapiens, UniProt P35354); settings: cited from earlier work
T1 sequence (P35354 18-604): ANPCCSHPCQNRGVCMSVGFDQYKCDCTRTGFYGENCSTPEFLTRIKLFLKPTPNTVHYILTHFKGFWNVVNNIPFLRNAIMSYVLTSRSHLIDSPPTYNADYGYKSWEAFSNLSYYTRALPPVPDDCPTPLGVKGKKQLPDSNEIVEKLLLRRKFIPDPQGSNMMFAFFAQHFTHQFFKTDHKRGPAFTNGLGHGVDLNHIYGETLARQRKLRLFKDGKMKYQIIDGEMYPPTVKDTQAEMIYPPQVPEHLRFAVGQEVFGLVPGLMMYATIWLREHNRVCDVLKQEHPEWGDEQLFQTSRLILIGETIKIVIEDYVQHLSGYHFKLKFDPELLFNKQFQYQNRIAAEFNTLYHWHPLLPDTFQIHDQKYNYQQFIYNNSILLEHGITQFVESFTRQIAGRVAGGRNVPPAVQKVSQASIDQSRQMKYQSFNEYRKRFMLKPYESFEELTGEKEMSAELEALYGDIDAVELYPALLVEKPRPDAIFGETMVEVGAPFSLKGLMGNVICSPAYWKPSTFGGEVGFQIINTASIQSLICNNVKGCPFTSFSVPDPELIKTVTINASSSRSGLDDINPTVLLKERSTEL

[2] = test system: MAIDS mice; experiment: in vivo treatment of MAIDS mice, anti-CD3 induced T cell proliferation assessed in lymph node cells; parameters: species or system mouse; settings: for increase of T cell responses to anti-CD3 versus untreated mice: intraperitoneal in intralipid, 18 to 20 days, rofecoxib 3, celecoxib 20 mg/kg/day
Experimental: Subsequently, T cell proliferative responses were assessed in vitro in a mixed population of unsorted lymph node mononuclear cells from treated and untreated animals by [^3H]-thymidine incorporation in the absence (columns A) and presence of Rp-8-Br-cAMPS (0.5 or 1.0 mM, columns B and C, respectively). T cell activation was accomplished in all samples by cross-ligation of anti-CD3 (mAb 2C11; 4 μg/ml). Control represents T cell proliferation in uninfected mice. Mean values from triplicate determinations are shown. Cells were cultured for 72 h during which [^3H]-thymidine was included for the last 4 hours;
Subsequently, T cell proliferative responses were assessed in vitro as described for FIG. 16 but without Rp-Br-cAMPs. Control represents T cell proliferation in uninfected mice. Mean values from triplicate determinations are shown (black circles) along with 25 to 75% percentile (boxed areas) and median (line in box). Bars represent range; and
Mean values±standard error of the mean (s.e.m.) from each group are shown. […] Statistics were analysed by Mann-Whitney U test for comparison of two groups of animals and with Wilcoxon Matched Pairs Test for comparison of the same group with two different treatments.
MAIDS mice normally develop an immunoproliferation syndrome with enlarged lymph nodes and spleen.
Parenteral administration was accomplished by intraperitoneally injecting Cox-2 inhibitors formulated in intralipid.

[3] = test system: lymph node mononuclear cells from MAIDS and control mice; experiment: anti-CD3 induced T cell proliferation in mixed unsorted lymph node cells, compound added in vitro; format: cell-based, mouse
Experimental: T cell activation was accomplished by cross-ligation of anti-CD3 (mAb 2C11; 4 μg/ml). […] Cells were cultured for 72 h during which [^3H] -thymidine was included for the last 4 h;
T cell activation was accomplished by cross-ligation of anti-CD3 (mAb 2C11; 4 μg/ml). […] Cells were cultured for 72 h during which [^3H ]-thymidine was included for the last 4 h;
The optimal concentration of antibody was titrated carefully in the initial setup and parallel experiments at several different dilutions of antibody was always performed. Proliferation was analyzed by incubating cells for 72 hours during which [^3H]-thymidine (0.4 μCi) was included for the last 4 hours and collected with a cell harvester (Skatron, Sterling, Va., USA) onto glass fiber filters. Incorporated precursor was counted in a scintillation analyzer (Tri-Carb, Packard, Meriden, Conn., USA). cAMP analogs, when used, were added 30 min prior to activation by addition of anti-CD3 antibodies.

[4] = test system: MAIDS mice; experiment: in vivo treatment of MAIDS mice, lymphoproliferation (spleen and lymph node weight); parameters: species or system mouse; settings: MAIDS mice 17 weeks post-infection, per os 7 days, 3 mg/kg/day
[5] = molecular target: COX-1 (Cavia porcellus, UniProt H0V9X9); settings: read-out: COX-1 IC50; guinea pig macrophage model; Engelhart et al. 1995; cited from earlier work
[6] = molecular target: T2, COX-2 (Cavia porcellus, UniProt P70682); settings: guinea pig macrophage model; Engelhart et al. 1995; cited from earlier work
T2 construct: NSAID's in guinea pig macrophage model; endogenous in cells; host or cells: guinea pig macrophages
T2 sequence (P70682 18-604): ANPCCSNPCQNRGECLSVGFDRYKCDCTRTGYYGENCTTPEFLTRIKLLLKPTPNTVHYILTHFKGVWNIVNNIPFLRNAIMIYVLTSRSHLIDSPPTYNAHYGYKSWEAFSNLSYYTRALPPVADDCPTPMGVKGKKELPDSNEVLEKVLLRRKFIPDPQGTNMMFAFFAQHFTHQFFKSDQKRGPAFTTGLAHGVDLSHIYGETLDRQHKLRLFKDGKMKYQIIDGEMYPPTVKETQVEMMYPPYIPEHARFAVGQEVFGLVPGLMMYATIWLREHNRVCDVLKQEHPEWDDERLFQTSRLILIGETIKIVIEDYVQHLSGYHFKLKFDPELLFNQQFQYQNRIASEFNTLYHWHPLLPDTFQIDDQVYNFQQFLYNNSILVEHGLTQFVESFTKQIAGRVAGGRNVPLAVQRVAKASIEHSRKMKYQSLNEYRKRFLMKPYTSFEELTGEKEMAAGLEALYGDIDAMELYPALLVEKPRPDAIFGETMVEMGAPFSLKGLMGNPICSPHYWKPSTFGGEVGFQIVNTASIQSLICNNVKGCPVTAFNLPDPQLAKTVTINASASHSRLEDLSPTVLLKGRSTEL

[7] = test system: CD3+ T cells from HIV infected patients; experiment: proliferation of HIV patient CD3+ T cells with cAMP antagonist added in vitro; format: cell-based, human
From the text: Bars show mean values±SD from triplicate determinations.
8-CPT-cAMP was from Sigma (St. Louis, Mo.).

[8] = test system: CD3+ T cells from MAIDS and control mice; experiment: TCR/CD3 stimulated proliferation of isolated T cells, [3H]-thymidine incorporation; format: cell-based, mouse
Experimental: TCR/CD3 stimulated T cell proliferation was assessed with isolated T cells from MAIDS mice (A) and uninfected control mice (B). The effect of increasing concentrations of cAMP agonist (8-CPT-cAMP) on TCR/CD3 stimulated proliferation of CD3+ T cells isolated from MAIDS (open circles, dotted line) and control mice (filled circles and solid line) was examined separately in the same experiments (C). Mean values of triplicate determinations±SD are shown. See Table 4 for summarised data (n=11). Note: Scaling differs in A and B, whereas in C the TCR/CD3 induced proliferation in the absence of cAMP agonist is normalized to 100% for both MAIDS and control T cells;
Activation was achieved by subsequent addition of monodisperse magnetic beads coated with sheep anti-mouse IgG (Dynal, cat. no. 110.02) at a cell:bead ratio of 1:1 followed by addition of anti-CD3 (clone 2C11) at a final dilution of 4 μg/ml for the experiments shown. […] 8-CPT-cAMP was from Sigma (St. Louis, Mo.) and Sp- and Rp-8-Br-cAMPS were from BioLog Life Science Company (Bremen, Germany) and were all dissolved to concentrations of 4 to 10 mM in PBS and concentrations calculated using the extinction coefficients given by the manufacturer.

Chain of COX-1 (H0V9X9 entry or part of it): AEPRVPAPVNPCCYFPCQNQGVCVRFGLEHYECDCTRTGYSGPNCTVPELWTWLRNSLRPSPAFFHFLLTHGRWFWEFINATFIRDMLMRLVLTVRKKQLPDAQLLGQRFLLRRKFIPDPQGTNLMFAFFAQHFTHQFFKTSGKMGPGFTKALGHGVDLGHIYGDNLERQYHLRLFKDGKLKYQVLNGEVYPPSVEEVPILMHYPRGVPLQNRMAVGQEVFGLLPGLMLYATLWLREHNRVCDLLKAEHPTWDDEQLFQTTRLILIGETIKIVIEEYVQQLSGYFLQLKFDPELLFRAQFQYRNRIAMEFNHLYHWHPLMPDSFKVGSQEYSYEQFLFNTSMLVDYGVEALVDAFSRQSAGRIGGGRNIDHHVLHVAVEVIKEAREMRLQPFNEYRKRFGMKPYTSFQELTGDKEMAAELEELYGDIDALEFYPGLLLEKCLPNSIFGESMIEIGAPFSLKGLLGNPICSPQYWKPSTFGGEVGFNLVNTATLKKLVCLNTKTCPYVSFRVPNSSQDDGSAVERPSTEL

**Q.** For `CS(=O)(=O)Nc1ccc([N+](=O)[O-])cc1Oc1ccccc1` [nimesulide], which “Ratio COX-2/WHMA-COX-1 at IC80” value [1] is on record?
**A.** 0.17

**Q.** For `CS(=O)(=O)c1ccc(C2=C(c3ccccc3)C(=O)OC2)cc1` [rofecoxib], which “Rp-8-Br-cAMPS effect on anti-CD3 induced proliferation after in vivo treatment” value ([2]; MAIDS mice treated per os one week) is on record?
**A.** lost

**Q.** What about the “increase of T cell responses to anti-CD3 versus untreated mice” value [2] of the same compound?
**A.** approximately two-fold

**Q.** And the “increase of anti-CD3 induced proliferation” value ([3]; cells from MAIDS mice 17 weeks post-infection, concentration-dependent, 1.9 to 500 nM)?
**A.** two- to three-fold

**Q.** And the average spleen weight [4]?
**A.** 0.8 g

**Q.** And the “average weight of pooled lymph nodes” value [4]?
**A.** 0.3 g

**Q.** With `CN1C(C(=O)Nc2ccccn2)=C(O)c2sccc2S1(=O)=O` [Tenoxicam] as the compound, how does the IC50 [5] read?
**A.** 201 nM

**Q.** And the IC50 [6]?
**A.** 322 nM

**Q.** Which “increase of T cell responses to anti-CD3 versus untreated mice” value [2] does the source give for `Cc1ccc(-c2cc(C(F)(F)F)nn2-c2ccc(S(N)(=O)=O)cc2)cc1` [celecoxib, 4-(5-(4-methylphenyl)-3-(trifluoromethyl)-1H-pyrazol-1-yl)-benzenesulfonamide] here?
**A.** approximately 3 fold

**Q.** And the EC50 ([3]; Mus musculus, T-cell, read-out: concentration producing half-maximal effect (ED50) on T cell proliferation)?
**A.** ~30 nM

**Q.** Which results are given for `Nc1ncnc2c1nc(Br)n2C1OC2COP(O)(=S)OC2C1O` (stereo not drawn) [Rp-8-Br-cAMPS, Rp-8-Bromo-cAMP-phosphorothioate]?
**A.** effect on proliferation by antagonist in vitro ([7]; patient 2, 1 mM): no effect; increase in proliferation by antagonist in vitro ([7]; patients 1 and 3, all time points, 1 mM): approx. 2 fold; effect on anti-CD3 stimulated mixed lymph node cultures ([3]; MAIDS mice that received PBS in vivo, 0.5 mM): increased immune responses; increase in TCR/CD3-induced proliferation ([8]; MAIDS T cells, higher concentrations, FIG. 5A): more than 4 fold; Increase in proliferation by Rp-8-Br-cAMPS ([8]; MAIDS mice, median, n = 11): 2.2 fold increase; effect on TCR/CD3-induced proliferation ([8]; control T cells, FIG. 5B): no stimulation was observed; Increase in proliferation by Rp-8-Br-cAMPS ([8]; control mice, median, n = 6): 1.1 fold increase; Increase in proliferation by Rp-8-Br-cAMPS ([8]; individual MAIDS mice 1-11, anti-CD3 induced proliferation): 14 fold increase and 37 fold increase (3×) and 10 fold increase and 19 fold increase (2×) and 22 fold increase and 42 fold increase and 40 fold increase and 24 fold increase

**Q.** For `Cc1cnc(NC(=O)C2=C(O)c3ccccc3S(=O)(=O)N2C)s1` [Meloxicam, 4-hydroxy-2-methyl-N-(5-methyl-2-thiazolyl)-1,1-dioxide-2H-1,2-benzothiazine-3-carboxamide], which “increase of T cell immune responses to anti-CD3 versus PBS-treated infected mice” value ([2]; 2.8 mg/kg/day, subcutaneous osmotic pump, 14 days, p<0.05) is on record?
**A.** more than 10 fold

**Q.** And the IC50 [5]?
**A.** 5.77 nM

**Q.** Which “Ratio COX-2/WHMA-COX-1 at IC80” value ([1]; WHMA test, Warner et al.) does the source give for `CS(=O)(=O)Nc1cc2c(cc1Sc1ccc(F)cc1F)C(=O)CC2` [L-745337] here?
**A.** <0.01
